What was measured:
full-length RORγt = full-length RORγt (Homo sapiens (Human), UniProt P51449); assay: RORγt 5×RORE Assay in Jurkat Cells (Assay 2); assay type: cell-based; details: secreted Nanoluc luciferase 5×RORE reporter, 16-18 hrs, read-out: RORγt5X IC50 Range
Method: [formula] RORγt 5×RORE Assay in Jurkat Cells (Assay 2)
Compounds of the present invention were tested for RORγ inverse agonist activity in a cell-based, transcriptional activity assay. […] (Promega, Cat. #N1021) using KpnI and HindIII restriction sites. […] Luciferase activity in the conditioned supernatants was determined with NanoGlo® assay reagents (Promega, Cat. #N1130).

[1] = molecular target: recombinant RORγ Ligand Binding Domain (LBD) (Homo sapiens (Human), UniProt P51449); assay: Radio-Ligand RORγ Binding Assay (Assay 1); details: SPA competition with 25-hydroxy [26,27-3H]-cholesterol, cell-free; read-out: RORγ Binding Ki Range
Method: Radio-Ligand RORγ Binding Assay (Assay 1)
Compounds of the present invention were tested for ability to bind to RORγ in a cell-free competition assay with commercially available radio-ligand (RL), 25-hydroxy [26,27-^3H]-cholesterol (PerkinElmer, Cat. #NET674250UC), for a ligand binding site on a recombinant RORγ Ligand Binding Domain (LBD) protein expressed as a 6×His-Glutathione-S-Transferase (GST) fusion. […] The plate was shaken at 700 rpm for 20 min and incubated for 10 min at rt, after which 40 μL of poly-Lys YSi SPA beads (PerkinElmer, Cat. #RPNQ0010) were added to achieve 50 μg of the beads per well. The plate was incubated on an orbital shaker for 20 min and then for 10 min without agitation at rt. SPA signal for tritium beta radiation was registered on PerkinElmer Microbeta plate reader. […] The percent inhibition vs. concentration data were fit into a four-parameter model, and IC50 values were calculated from the fit as the concentrations corresponding to the inflection points on the dose-response curves.

recombinant RORγ Ligand Binding Domain (LBD), sequence (P51449 269-508): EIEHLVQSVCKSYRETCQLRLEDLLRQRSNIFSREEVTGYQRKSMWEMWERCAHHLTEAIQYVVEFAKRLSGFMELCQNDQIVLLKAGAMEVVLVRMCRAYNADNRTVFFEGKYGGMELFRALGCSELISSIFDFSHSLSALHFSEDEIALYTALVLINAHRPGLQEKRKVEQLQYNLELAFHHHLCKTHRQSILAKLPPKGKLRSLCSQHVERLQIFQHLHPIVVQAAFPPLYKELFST
full-length RORγt, sequence (P51449 other isoform, or with tags, fused parts or gaps): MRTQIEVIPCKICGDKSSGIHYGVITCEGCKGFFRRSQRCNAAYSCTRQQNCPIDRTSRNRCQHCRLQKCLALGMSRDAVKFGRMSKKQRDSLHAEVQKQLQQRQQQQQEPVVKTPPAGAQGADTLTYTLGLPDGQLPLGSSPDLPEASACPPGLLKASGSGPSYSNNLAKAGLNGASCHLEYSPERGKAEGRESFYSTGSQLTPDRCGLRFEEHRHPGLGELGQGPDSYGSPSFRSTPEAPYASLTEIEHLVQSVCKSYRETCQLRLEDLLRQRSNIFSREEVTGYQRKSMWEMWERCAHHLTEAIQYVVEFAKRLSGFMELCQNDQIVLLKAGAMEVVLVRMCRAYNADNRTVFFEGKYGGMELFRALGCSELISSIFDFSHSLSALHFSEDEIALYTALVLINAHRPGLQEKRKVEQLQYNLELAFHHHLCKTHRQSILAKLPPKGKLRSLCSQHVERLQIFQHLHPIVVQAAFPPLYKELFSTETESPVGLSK

| IC50 (full-length RORγt) | Ki [1] | SMILES |
| --- | --- | --- |
| 100 to 1000 nM | < 100 nM | CC(C)[C@H]1c2ncc(C(=O)NCC3CCN(S(C)(=O)=O)CC3)cc2CN1Cc1ccc(C(F)(F)F)cc1 [Compound 63] |
| 100 to 1000 nM | < 100 nM | CC(C)[C@H]1c2ncc(C(=O)NCc3ccc(C#N)cc3)cc2CN1Cc1ccc(C(F)(F)F)cc1 [Compound 64] |
| < 100 nM | < 100 nM | CNS(=O)(=O)c1ccc(CNC(=O)c2cnc3c(c2)CN(Cc2ccc(C(F)(F)F)cc2)[C@H]3C(C)C)cc1 [Compound 67] |
| > 1000 nM | < 100 nM | CCS(=O)(=O)N1CCC(CNC(=O)c2cnc3c(c2)CN(Cc2ccc(C(F)(F)F)cc2)[C@H]3C(C)C)CC1 [Compound 109] |
| 100 to 1000 nM | < 100 nM | CC(C)[C@H]1c2ncc(C(=O)NC[C@H]3CC[C@H](CC(=O)O)CC3)cc2CN1Cc1ccc(C(F)(F)F)cc1 [Compound 139] |
| < 100 nM | < 100 nM | CCS(=O)(=O)c1cnc(CNC(=O)c2cnc3c(c2)CN(Cc2ccc(C(F)(F)F)cc2)[C@H]3C(C)C)c(C)c1 [Compound 142] |
| < 100 nM | < 100 nM | CCS(=O)(=O)c1cnc(CNC(=O)c2cnc3c(c2)CN(Cc2ccc(C(F)(F)F)cc2)[C@H]3C(C)C)c(F)c1 [Compound 144] |
| 100 to 1000 nM | < 100 nM | CC(C)[C@H]1c2ncc(C(=O)N[C@@H](CO)c3ccc(C#N)cc3)cc2CN1Cc1ccc(C(F)(F)F)cc1 [Compound 149] |
| > 1000 nM | 100 to 1000 nM | CC(C)[C@H]1c2ncc(C(=O)NCc3ccc(C#N)cn3)cc2CN1Cc1ccc(C(F)(F)F)cc1 [Compound 155] |
